Source: patent US8278033B2, “Efficient well being assessment and improved treatment protocol” (priority 2008, dated 2012)
“And” between values parts separate entries of the source, which are not always exact repeats. Identical values can stand only once.

Experiments:
[1] = system: endothelial cells; assay: Anti-vascular score (AVS) on Fast Green/H&E slides of tumor cell cultures, averaged over paired comparisons; type: cell-based, human; design: key to Anti-Vascular Score (AVS) (Avg): 10x the 0+ to 5+ anti-microvascular score (max 50); key to AVS minus VAVS (Avg): AVS minus vehicle AVS, on 10x the 0+ to 5+ scale; conditions: for Anti-Vascular Score (AVS) (Avg): 10x multiples of the 0+ to 5+ score, average of N paired comparisons, bevacizumab 2.5 mg/ml, DMSO 0.5% + EtOH 0.5%, cisplatin 3.3, sunitinib 8.35, gefitinib 22.35, erlotinib 89.4, sorafenib 12.5, imatinib 12.5 μg/ml; for AVS minus VAVS (Avg): AVS corrected for the effect of vehicle by subtraction; for AVS minus VAVS (Avg) / (AVS − VAVS)/AT Ratio (Avg): concentrations as in Table 1; for (AVS − VAVS)/AT Ratio (Avg): ratio of vehicle-corrected AVS to antitumor score
Method: (§1) Solid tumors are minced to pieces smaller than 1 mm (small enough to be aspirated into a standard disposable 10 ml pipette) with high quality curved surgical scissors. Medium in which said tumors may have been transported is reserved, along with the supernatant from the tissue mince. Scissor-minced tumor pieces are digested with collagenase/DNase in RPMI-1640 containing antibiotics and 10% fetal calf serum. Specimens are digested in 50 ml disposable polypropylene centrifuge tubes, assisted by gentle mixing with plastic-coated, magnetic stirring bars over a stirring plate. Specimens are thusly mixed until complete gross digestion has taken place—typically about 2-3 hours for a 1-3 gram specimen. Cytospin slides are then prepared from all cell fractions (transport medium, supernatant from tissue mince, and enzyme digestate), and stained with fast green-H&E, as described previously (Weisenthal, et al., “A Novel Dye Exclusion Method for Testing in vitro Chemosensitivity of Human Tumors,” Cancer Res. (1983) 43:749-757).
Final volume of cell suspension/drug solution (or vehicle) plated for culture can be 0.12 ml. Culturing is in polypropylene round bottom, 96-well culture dishes in a humidified 37° C. incubator for a standardized duration of time.
Cells are cultured with the index concentration of each drug and, if desired, with dilutions of the index concentration, where the index concentration is determined from training set assays or from the literature. […] Replicate 96-well plates are tested.
The various drugs were rated by scoring on a 0+ to 5+ scale for the anti-microvascular effects, with 5+ being the highest possible score. […] The “nib” drugs are kinase inhibiting drugs.
(§2) For this determination, the results provided in Table 1 are 10× multiples of the scoring system of the previous paragraph.
(§3) The scores provided in FIG. 2 were multiplied by 10 and averaged to give an anti-vascular score (AVS) shown in column 2; the average AVS for the vehicle alone (VAVS) is shown in column 3 and the level of the statistical significance of their difference is shown in column 4. The AVS score was corrected for the effect of vehicle by subtraction as shown in column 5. The antitumor score (AT) is shown in column 6.
Finally, the ratio of AVS (corrected for the effect of vehicle) to the antitumor score is shown in the last column.

[2] = system: tumor cells; assay: Direct antitumor (AT) score on slides of tumor cell cultures; type: cell-based, human; conditions: direct antitumor effects; concentrations as in Table 1
Method: as §1
To assay for endothelial cells are mixed with, for example, 10% (volume/volume) or, for example, 1% (volume/volume) or intermediate percentages of antiangiogenic drug containing solution or vehicle control (most typically 0.9% NaCl). Final volume of cell suspension/drug solution (or vehicle) plated for culture can be 0.12 ml. Culturing is in polypropylene round bottom, 96-well culture dishes in a humidified 37° C. incubator for a standardized duration of time.
Cells are cultured with the index concentration of each drug and, if desired, with dilutions of the index concentration, where the index concentration is determined from training set assays or from the literature. Negative controls generally consist of 0.9% NaCl, and/or the vehicle in which an antiangiogenic drug is dissolved. Replicate 96-well plates are tested.
as §2, §3

[3] = system: endothelial cells; assay: Anti-microvascular effects in non-Hodgkin's Lymphoma lymph node biopsy culture (ImageJ and manual scores); type: cell-based, human; conditions: for anti-microvascular activity (in words) / concentration at which anti-angiogenic cell effects were achievable: NHL lymph node biopsy sample; for anti-microvascular activity (in words): FIG. 6; for concentration at which anti-angiogenic cell effects were achievable: FIG. 7
Source text: (§4) A lymph node biopsy was obtained from a non-Hodgkin's Lymphoma patient and processed and stained as described above. […] The cells can also be imaged using publicly available “ImageJ” software available from the National Institutes of Health (NIH) to assist quantitation. The image is converted to 8-bit black and white threshold gated to paint only the dead endothelial cells.
The raw scores for the gated features (putative dead endothelial cells) are normalized for uneven cell distributions by image analyzing each area twice: first with the detection threshold set to gate only the features of interest (putative dead endothelial cells) and then again to detect all features on the slide (this would be analogous to normalizing gene copy to total DNA in cell extracts).

[4] = system: non-Hodgkin's Lymphoma (NHL) cells; assay: Direct antitumor cell effects in non-Hodgkin's Lymphoma lymph node biopsy culture; type: cell-based, human; conditions: NHL lymph node biopsy sample, FIG. 6
Source text: as §4
(§5) The objective, automated ImageJ scores for both individual gated features and also for total area (originally in pixels squared) is shown. The raw scores for the gated features (putative dead endothelial cells) are normalized for uneven cell distributions by image analyzing each area twice: first with the detection threshold set to gate only the features of interest (putative dead endothelial cells) and then again to detect all features on the slide (this would be analogous to normalizing gene copy to total DNA in cell extracts). Shown additionally are the subjective (0+ to 5+) manual anti-vascular scores which were obtained one month before the installed the ImageJ software was installed. Shown additionally are the direct antitumor cell effects of each of the drugs and solvents tested.

[5] = system: endothelial cells; assay: Anti-microvascular effect scoring, Fast Green/H&E stained pancreatic carcinoid tumor suspension culture; type: cell-based, human
Method: as §1
Final volume of cell suspension/drug solution (or vehicle) plated for culture can be 0.12 ml. […]
Cells are cultured with the index concentration of each drug and, if desired, with dilutions of the index concentration, where the index concentration is determined from training set assays or from the literature. […]

[6] = system: endothelial cells; assay: Endothelial cell killing by drugs and combinations in a poorly differentiated breast cancer specimen; type: cell-based, human; conditions: for effectiveness in endothelial cell killing (in words): Fast Green/H&E
Source text: A specimen of poorly differentiated breast cancer was used in the procedures set forth in the previous examples and tested with various drugs and drug combinations as described above.

[7] = system: endothelial cells; assay: Endothelial cell death in cultured peripheral blood chronic lymphocytic leukemia cells; type: cell-based, human; conditions: peripheral blood CLL cells cultured 4 days, 2.5 mg/ml
Source text: They are readily apparent as refractile, angular small cells of smaller dimension than the surrounding cells. These cells are about one-third the size of lymphocytes and are about 3μ in diameter.

[8] = system: endothelial cells; assay: ImageJ quantitation of dead endothelial cells in cultured lymph samples; type: cell-based, human; conditions: all of the lymphoma patients
Source text: as §4, §5
Lymph samples from five lymphoma patients and two normal volunteers were cultured and stained as described above. […] The quantitation of results was as described in Example 4 using ImageJ software.

[9] = system: vascular endothelial growth factor (VEGF); assay: Level of VEGF in tumor cell cultures (optical density 450 nm minus 570 nm); type: cell-based, human
Method: The observed ability of EtOH/DMSO to effect killing of microvascular/endothelial cells may be due to the ability of these solvents to reduce the levels of VEGF in cell culture. It is known that tumor cells secrete VEGF and VEGF is needed, for the growth of neovasculature. Accordingly, a number of tumor cell cultures were treated with these solvents. The level of VEGF in the cultures was measured by subtracting the optical density at 570 nm from the optical density of 450 nm.
For tumor samples preserved in 10% DMSO, only very low levels of VEGF were observed. […] Of particular interest are the cells from Patient 6, shown at the end of the table.

[10] = system: endothelial cells; conditions: microaggregates of tumor biopsies, WO 2007/075440; cited from earlier work
[11] = system: tumor cells; conditions: microaggregates of tumor biopsies, WO 2007/075440; cited from earlier work

Row | Compound | Anti-Vascular Score (AVS) (Avg) [1] | AVS minus VAVS (Avg) [1] | (AVS − VAVS)/AT Ratio (Avg) [1] | Anti-Tumor (AT) Score (Avg) [2] | anti-microvascular activity (in words) [3] | direct antitumor activity (in words) [4] | further results
1 | N.N.[Cl][Pt][Cl] [Cisplatin] | 4.5 | 0.6 | 0.01 | 59.2 |  |  | 
2 | COc1cccc2c1C(=O)c1c(O)c3c(c(O)c1C2=O)C[C@@](O)(C(=O)CO)C[C@@H]3O[C@H]1C[C@H](N)[C@H](O)[C@H](C)O1 [doxorubicin] |  |  |  |  | relatively ineffective as anti-microvascular agents | direct antitumor effects | 
3 | COc1cc2ncnc(Nc3ccc(F)c(Cl)c3)c2cc1OCCCN1CCOCC1 [Gefitinib, gefitinib] | 8.3 | 4.5 | 0.16 | 28.5 |  |  | anti-microvascular effects score (0+ to 5+ scale) ([5]; pancreatic carcinoid tumor suspension culture, bevacizumab at 2.5 mg/ml, Fast Green/H&E): 0
4 | C[S+](C)[O-] [DMSO] |  |  |  |  |  |  | concentration at which anti-angiogenic cell effects were achievable [3]: 0.125 % of the final medium
5 | bevacizumab | 24.7 | 19.7 |  | 12.9 |  | essentially no direct antitumor effects | endothelial cell death (appearance after Fast Green/H&E) ([5]; pancreatic carcinoid tumor, 96 hours in suspension culture, 2.5 mg/ml): resulting in endothelial cell death; anti-microvascular score ([6]; drug alone): +1; endothelial cell death [7]: caused endothelial cell death; dead endothelial cells (200x view) ([3]; NHL lymph node biopsy cells cultured 4 days): presence of dead endothelial cells is readily apparent; visibility of endothelial cells (in words) [8]: greatly enhanced; 450-570 O.D. (level of VEGF) ([9]; Pt 1 cells (Merkel tumor, 10% DMSO cryopreserved), 1.25 mg/ml, wells #1-#3, listed as Bev): 0.054 and 0.059; 450-570 O.D. (level of VEGF) ([9]; Pt 1 cells (Merkel tumor, 10% DMSO cryopreserved), 2.5 mg/ml, wells #1-#3, listed as Bev): 0.051 and 0.052 and 0.054; 450-570 O.D. (level of VEGF) ([9]; Pt 2 cells (ovarian, 10% DMSO cryopreserved), 1.25 mg/ml, wells #1-#3, listed as Bev): 0.059 and 0.055 and 0.054; 450-570 O.D. (level of VEGF) ([9]; Pt 2 cells (ovarian, 10% DMSO cryopreserved), 2.5 mg/ml, wells #1-#3, listed as Bev): 0.052 and 0.056 and 0.054; 450-570 O.D. (level of VEGF) ([9]; Pt 3 cells (breast, fresh), 2.5 mg/ml, wells #1-#2, listed as Bev): 0.056 and 0.059; 450-570 O.D. (level of VEGF) ([9]; Pt 4 cells (NHL, fresh), 1.25 mg/ml, wells #1-#2, listed as Bev): 0.074 and 0.068; 450-570 O.D. (level of VEGF) ([9]; Pt 4 cells (NHL, fresh), 2.5 mg/ml, wells #1-#2): 0.055; 450-570 O.D. (level of VEGF) ([9]; Pt 5 cells (breast, fresh), 2.5 mg/ml, well #1): 0.053; 450-570 O.D. (level of VEGF) ([9]; Pt 6 cells (breast, fresh), 1.25 mg/ml, well #1): 0.063; 450-570 O.D. (level of VEGF) ([9]; Pt 6 cells (breast, fresh), 2.5 mg/ml, well #1): 0.052; levels of VEGF (in words) ([9]; fresh breast tumor cells, untreated levels off-scale): could be brought to 0; effect on endothelial cells (in words) [10]: endothelial cells showing up dead; effect on tumor cells (in words) [11]: tumor cells remain unaffected
6 | CCO [ethanol] |  |  |  |  |  |  | concentration at which anti-angiogenic cell effects were achievable [3]: 0.125 % of the final medium
7 | C#Cc1cccc(Nc2ncnc3cc(OCCOC)c(OCCOC)cc23)c1 [Erlotinib, erlotinib] | 16.2 | 4.2 | 0.19 | 22.5 | comparable to those of vehicle alone | to a lesser extent, erlotinib acted directly on tumor cells | effectiveness in endothelial cell killing (in words) [6]: None appeared particularly effective
8 | CCN(CC)CCNC(=O)c1c(C)[nH]c(/C=C2\C(=O)Nc3ccc(F)cc32)c1C [Sunitinib, sunitinib] | 9.5 | 4.9 | 0.19 | 25.8 |  |  | 
9 | Cc1ccc(NC(=O)c2ccc(CN3CCN(C)CC3)cc2)cc1Nc1nccc(-c2cccnc2)n1 [Imatinib, imatinib] |  | 2.8 |  | 23.6 | comparable to those of vehicle alone | acted directly on tumor cells | effectiveness in endothelial cell killing (in words) [6]: None appeared particularly effective
10 | CNC(=O)c1cc(Oc2ccc(NC(=O)Nc3ccc(Cl)c(C(F)(F)F)c3)cc2)ccn1 [Sorafenib, sorafenib] |  | 1.4 |  | 28.7 | comparable to those of vehicle alone | acted directly on tumor cells | 
